What follows are compounds tested against purified human Factor XIa (Homo sapiens (Human), UniProt P03951) (assay: Factor XIa Assay). Details: purified human Factor XIa 40 pM, substrate Z-Gly-Pro-Arg-AFC, pH 7.4; read-out: FXIa IC50.
Sequence of purified human Factor XIa (P03951 388-625): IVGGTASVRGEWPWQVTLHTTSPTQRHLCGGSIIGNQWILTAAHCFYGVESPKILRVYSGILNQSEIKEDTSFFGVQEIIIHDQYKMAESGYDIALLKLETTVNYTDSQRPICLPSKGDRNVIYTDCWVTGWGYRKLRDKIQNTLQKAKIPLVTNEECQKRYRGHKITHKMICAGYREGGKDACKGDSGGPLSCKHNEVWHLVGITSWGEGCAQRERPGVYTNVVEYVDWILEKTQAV
Sequence of purified human Factor XIa (P03951 19-387 partner): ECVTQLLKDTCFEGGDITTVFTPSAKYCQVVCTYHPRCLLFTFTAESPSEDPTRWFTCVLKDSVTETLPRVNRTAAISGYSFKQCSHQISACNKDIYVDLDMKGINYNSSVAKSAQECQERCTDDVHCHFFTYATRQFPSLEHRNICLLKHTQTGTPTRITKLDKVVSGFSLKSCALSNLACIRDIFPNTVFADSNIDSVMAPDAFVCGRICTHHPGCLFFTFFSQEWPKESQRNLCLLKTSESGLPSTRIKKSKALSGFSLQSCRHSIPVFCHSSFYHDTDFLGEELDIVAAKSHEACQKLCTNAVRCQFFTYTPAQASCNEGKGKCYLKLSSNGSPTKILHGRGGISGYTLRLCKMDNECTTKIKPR
Type: biochemical
Protocol: The effectiveness of a compound of the present invention as an inhibitor of Coagulation Factor XIa can be determined using a relevant purified serine protease, and an appropriate synthetic substrate. The rate of hydrolysis of the chromogenic or fluorogenic substrate by the relevant serine protease was measured both in the absence and presence of compounds of the present invention. Assays were conducted at room temperature or at 37° C. […] A decrease in the rate of fluorescence change in the presence of inhibitor is indicative of enzyme inhibition. Such methods are known to one skilled in the art. […]
Factor XIa determinations were made in 50 mM HEPES buffer at pH 7.4 containing 150 mM NaCl, 5 mM CaCl2, and 0.1% PEG 8000 (polyethylene glycol; JT Baker or Fisher Scientific). Determinations were made using purified human Factor XIa at a final concentration of 40 pM (Sekisui Diagnostics) and he synthetic substrate, Z-Gly-Pro-Arg-AFC, TFA salt (Sigma #C0980) at a concentration of 100 µM.
Activity assays were performed by diluting a stock solution of substrate at least tenfold to a final concentration ≦0.1 Km into a solution containing enzyme or enzyme equilibrated with inhibitor. Times required to achieve equilibration between enzyme and inhibitor were determined in control experiments. Initial velocities of product formation in the absence (Vo) or presence of inhibitor (Vi) were measured. Assuming competitive inhibition, and that unity is negligible compared Km/[S], [I]/e, and [I]/e (where [S], [I], and e respectively represent the total concentrations, of substrate, inhibitor and enzyme), the equilibrium constant (Ki) for dissociation of the inhibitor from the enzyme can be obtained from the dependence of Vo/Vi on [I] shown in the following equation.
In the case of `O=C(Cc1ccc(-c2cc(Cl)ccc2C2CC2)c[n+]1[O-])Nc1ccc(C(=O)O)cc1` [Example 10, 4-({[5-(5-chloro-2-cyclopropylphenyl)-1-oxidopyridin-2-yl]acetyl}amino) benzoic acid], the IC50 is reported as 2190 nM.
In the case of `Cc1cc(NC(=O)C(CC2CC2)c2ccc(-c3cc(Cl)ccc3CN)c[n+]2[O-])ccc1C(=O)O` (racemic) [Example 37, 4-[(2-{5-[2-(aminomethyl)-5-chlorophenyl]-1-oxidopyridin-2-yl}-3-cyclopropylpropanoyl)amino]-2-methylbenzoic acid], the IC50 is reported as 228 nM.
Compound `Cc1c(-c2c(F)ccc(Cl)c2F)ccc(C(Cc2ccccc2)C(=O)Nc2ccc(C(=O)O)cc2)[n+]1[O-]` (stereo not shown) [Example 26, 6-(1-((4-carboxyphenyl)amino)-1-oxo-3-phenylpropan-2-yl)-3-(3-chloro-2,6-difluorophenyl)-2-methylpyridine 1-oxide] has an IC50 of 693 nM.
Work on `O=C(O)c1ccc(NC(=O)C(CC2CC2)c2ccc(-c3c(F)ccc(Cl)c3F)c[n+]2[O-])cc1` (racemic) [Example 33, 4-({2-[5-(3-chloro-2,6-difluorophenyl)-1-oxidopyridin-2-yl]-3-cyclopropylpropanoyl}amino)benzoic acid] yielded an IC50 of 134 nM.
Work on `O=C(O)c1ccc(NC(=O)C(CC2CC2)c2ccc(-c3cc(Cl)ccc3-n3cnnn3)c[n+]2[O-])c(Cl)c1` (single isomer, unassigned) [Example 31, 3-chloro-4-[(2-{5-[5-chloro-2-(1H-tetrazol-1-yl)phenyl]-1-oxidopyridin-2-yl}-3-cyclopropylpropanoyl)amino]benzoic acid] yielded an IC50 of 752 nM.
`Cc1cc(NC(=O)C(CC2CC2)c2ccc(-c3cc(Cl)ccc3-c3cnco3)c[n+]2[O-])ccc1C(=O)O` (racemic) [Example 36, 4-[(2-{5-[5-chloro-2-(1,3-oxazol-5-yl)phenyl]-1-oxidopyridin-2-yl}-3-cyclopropylpropanoyl)amino]-2-methyl-benzoic acid] gave an IC50 of 94.5 nM.
For `O=C(Cc1ccc(-c2cc(Cl)ccc2C(F)F)c[n+]1[O-])Nc1ccc(C(=O)O)cc1` [Example 13, 4-[({5-[5-chloro-2-(difluoromethyl)phenyl]-1-oxidopyridin-2-yl}acetyl)amino] benzoic acid], the IC50 was 388 nM.
`O=C(O)c1ccc(NC(=O)C(CC2CC2)c2ccc(-c3cc(Cl)ccc3-c3cnco3)c[n+]2[O-])cc1` (single isomer, unassigned) [Example 34, 4-[(2-{5-[5-chloro-2-(1,3-oxazol-5-yl)phenyl]-1-oxidopyridin-2-yl}-3-cyclopropylpropanoyl)amino]benzoic acid] showed an IC50 of 443 nM.
`N#Cc1ccc(Cl)c(F)c1-c1ccc(C(CC2CC2)C(=O)Nc2ccc(C(=O)O)cc2)[n+]([O-])c1` (single isomer, unassigned) [Example 29, 4-({2-[5-(3-chloro-6-cyano-2-fluorophenyl)-1-oxidopyridin-2-yl]-3-cyclopropylpropanoyl}amino)benzoic acid] was tested, and the IC50 was 458 nM.
With `O=C(O)c1ccc(NC(=O)C(CC2CC2)c2ccc(-c3cc(Cl)ccc3-c3nccs3)c[n+]2[O-])cc1` (racemic) [Example 43, 4-[(2-{5-[5-chloro-2-(1,3-thiazol-2-yl)phenyl]-1-oxidopyridin-2-yl}-3-cyclopropylpropanoyl)amino]benzoic acid] the IC50 was 53.6 nM.
Work on `COC(=O)NC12CCC(NC(=O)C(Cc3ccccc3)c3ccc(-c4cc(Cl)ccc4-n4cnnn4)c[n+]3[O-])(CC1)CC2` (single isomer, unassigned) [Example 20, methyl {4-[(2-{5-[5-chloro-2-(1H-tetrazol-1-yl)phenyl]-1-oxidopyridin-2-yl}-3-phenylpropanoyl)amino]bicyclo[2.2.2]oct-1-yl}carbamate] yielded an IC50 of 1000 nM.
With `O=C(NC12CCC(C(=O)O)(CC1)CC2)C(Cc1ccccc1)c1ccc(-c2cc(Cl)ccc2-n2cnnn2)c[n+]1[O-]` (single isomer, unassigned) [Example 18, 4-[(2-{5-[5-chloro-2-(1H-tetrazol-1-yl)phenyl]-1-oxidopyridin-2-yl}-3-phenylpropanoyl)amino] bicyclo[2.2.2]octane-1-carboxylic acid] the IC50 was 271 nM.
With `O=C(O)c1ccc(NC(=O)[C@H](Cc2ccccc2)c2ccc(-c3cc(Cl)ccc3-c3cnco3)c[n+]2[O-])cc1` [Example 21, 4-{[(2R)-2-{5-[5-chloro-2-(1,3-oxazol-5-yl)phenyl]-1-oxidopyridin-2-yl}-3-phenylpropanoyl]amino} benzoic acid] the IC50 was 0.52 nM.
`O=C(O)c1ccc(NC(=O)C(O)c2ccc(-c3cc(Cl)ccc3C3CC3)c[n+]2[O-])cc1` (racemic) [Example 11, 4-({[5-(5-chloro-2-cyclopropylphenyl)-1-oxidopyridin-2-yl](hydroxy)acetyl}amino)benzoic acid] gave an IC50 of 2510 nM.
In the case of `O=C(O)c1ccc(NC(=O)C(CC2CC2)c2ccc(-c3cc(Cl)ccc3OC(F)(F)F)c[n+]2[O-])cc1` (single isomer, unassigned) [Example 38, 4-[(2-{5-[5-chloro-2-(trifluoromethoxy)phenyl]-1-oxidopyridin-2-yl}-3-cyclopropylpropanoyl)amino]benzoic acid], the IC50 is reported as 1000 nM.
Work on `Cc1cc(C(=O)O)ccc1NC(=O)C(CC1CC1)c1ccc(-c2cc(Cl)ccc2-n2cnnn2)c[n+]1[O-]` (single isomer, unassigned) [Example 46, 4-[(2-{5-[5-chloro-2-(1H-tetrazol-1-yl)phenyl]-1-oxidopyridin-2-yl}-3-cyclopropylpropanoyl)amino]-3-methylbenzoic acid] yielded an IC50 of 1000 nM.
`Cc1cc(NC(=O)C(CC2CC2)c2ccc(-c3cc(Cl)ccc3-n3cnnn3)c[n+]2[O-])ccc1C(=O)O` (single isomer, unassigned) [Example 49, 4-[(2-{5-[5-chloro-2-(1H-tetrazol-1-yl)phenyl]-1-oxidopyridin-2-yl}-3-cyclopropylpropanoyl)amino]-2-methylbenzoic acid] showed an IC50 of 57 nM.
`O=C(NC12CCC(C(=O)O)(CC1)CC2)C(Cc1ccccc1)c1ccc(-c2c(F)ccc(Cl)c2F)c[n+]1[O-]` (single isomer, unassigned) [Example 16, 4-({2-[5-(3-chloro-2,6-difluorophenyl)-1-oxidopyridin-2-yl]-3-phenylpropanoyl}amino) bicyclo[2.2.2]octane-1-carboxylic acid] gave an IC50 of 10000 nM.
`O=C(O)c1ccc(NC(=O)[C@@H](Cc2ccccc2)c2ccc(-c3cc(Cl)ccc3-c3cnco3)c[n+]2[O-])cc1` [Example 22, 4-{[(2S)-2-{5-[5-chloro-2-(1,3-oxazol-5-yl)phenyl]-1-oxidopyridin-2-yl}-3-phenylpropanoyl]amino} benzoic acid] showed an IC50 of 364 nM.
Work on `O=C(O)c1ccc(NC(=O)[C@@H](Cc2ccccc2)c2ccc(-c3c(F)ccc(Cl)c3F)c[n+]2[O-])cc1` [Example 3, 4-({(2S)-2-[5-(3-chloro-2,6-difluorophenyl)-1-oxidopyridin-2-yl]-3-phenylpropanoyl}amino) benzoic acid] yielded an IC50 of 825 nM.
With `O=C(Cc1ccc(-c2cc(Cl)ccc2OC(F)F)c[n+]1[O-])Nc1ccc(C(=O)O)cc1` [Example 12, 4-[({5-[5-chloro-2-(difluoromethoxy)phenyl]-1-oxidopyridin-2-yl}acetyl)amino] benzoic acid] the IC50 was 711 nM.

What follows are compounds tested against purified Human plasma kallikrein (Homo sapiens (Human), UniProt P03952) (assay: Kallikrein Assay). Details: purified Human plasma kallikrein 0.5 nM, substrate Acetyl-K-P-R-AFC, pH 7.4; read-out: P. KLK IC50.
Sequence of purified Human plasma kallikrein (P03952 391-638): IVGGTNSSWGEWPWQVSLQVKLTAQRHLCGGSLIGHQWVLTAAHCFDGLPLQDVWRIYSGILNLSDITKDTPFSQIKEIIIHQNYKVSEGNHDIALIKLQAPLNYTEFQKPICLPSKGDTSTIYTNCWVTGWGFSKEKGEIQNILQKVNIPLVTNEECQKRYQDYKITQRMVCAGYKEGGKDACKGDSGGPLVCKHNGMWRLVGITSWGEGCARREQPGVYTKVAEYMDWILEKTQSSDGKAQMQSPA
Sequence of purified Human plasma kallikrein (P03952 20-390 partner): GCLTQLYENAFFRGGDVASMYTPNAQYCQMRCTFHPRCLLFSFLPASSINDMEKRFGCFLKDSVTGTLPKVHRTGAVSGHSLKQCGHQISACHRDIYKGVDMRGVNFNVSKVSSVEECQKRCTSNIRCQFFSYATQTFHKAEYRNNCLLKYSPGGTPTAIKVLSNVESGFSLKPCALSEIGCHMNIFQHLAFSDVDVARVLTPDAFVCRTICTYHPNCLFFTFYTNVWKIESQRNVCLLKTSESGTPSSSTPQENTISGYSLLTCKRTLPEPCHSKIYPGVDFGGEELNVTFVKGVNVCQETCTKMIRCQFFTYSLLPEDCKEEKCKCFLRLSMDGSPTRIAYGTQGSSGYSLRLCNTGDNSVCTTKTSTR
Type: biochemical
Protocol: The effectiveness of a compound of the present invention as an inhibitor of Kallikrein can be determined using a relevant purified serine protease, and an appropriate synthetic substrate. The rate of hydrolysis of the chromogenic or fluorogenic substrate by the relevant serine protease was measured both in the absence and presence of compounds of the present invention. Assays were conducted at room temperature or at 37° C. […] A decrease in the rate of fluorescence change in the presence of inhibitor is indicative of enzyme inhibition. Such methods are known to one skilled in the art. The results of this assay are expressed as the inhibitory constant, Ki.
Kallikrein determinations were made in 50 mM HEPES buffer at pH 7.4 containing 150 mM NaCl, 5 mM CaCl2, and 0.1% PEG 8000 (polyethylene glycol; Fisher Scientific). Determinations were made using purified Human plasma kallikrein at a final concentration of 0.5 nM (Enzyme Research Laboratories) and the synthetic substrate, Acetyl-K-P-R-AFC (Sigma # C6608) at a concentration of […].
Activity assays were performed by diluting a stock solution of substrate at least tenfold to a final concentration ≦0.2 Km into a solution containing enzyme or enzyme equilibrated with inhibitor. Times required to achieve equilibration between enzyme and inhibitor were determined in control experiments. The reactions were performed under linear progress curve conditions and fluorescence increase measured at 405 Ex/510 Em nm. Values were converted to percent inhibition of the control reaction (after subtracting 100% Inhibition value). IC50 was determined by inflection point from a four parameter logistic curve fit. Ki was calculated using the Cheng Prusoff equation, Ki=IC50/(1+([S]/Km)).
In the case of `O=C(O)c1ccc(NC(=O)C(CC2CC2)c2ccc(-c3cc(Cl)ccc3-n3cc(C(F)F)nn3)c[n+]2[O-])cc1` (racemic) [Example 41, 4-{[2-(5-{5-chloro-2-[4-(difluoromethyl)-1H-1,2,3-triazol-1-yl]phenyl}-1-oxidopyridin-2-yl)-3-cyclopropylpropanoyl]amino}benzoic acid], the IC50 is reported as 363 nM.

Reference: patent US9783530B2, “Factor Xla inhibitors” (Merck Sharp & Dohme Corp., priority 2014, dated 2017)
